US12391648B2, “Pyridyloxy thioester derivative and preparation method therefor, herbicidal composition, and application” (Qingdao Kingagroot Chemical Compound Co., Ltd., priority 2018, dated 2025)

Key:
Format in all cases: in vivo
[1] = test system: Indica rice; assay: Post-emergence test experiment (Table 4), crop safety; conditions: after 3 weeks
Description: (§1) The activity level standard of harmful plants destruction (i. e. growth inhibition rate) is as follows: • Level 5: the growth inhibition rate is greater than 85%; • Level 4: the growth inhibition rate is equal to or greater than 60% and less than 85%; • Level 3: the growth inhibition rate is equal to or greater than 40% and less than 60%; • Level 2: the growth inhibition rate is equal to or greater than 20% and less than 40%; • Level 1: the growth inhibition rate is equal to or greater than 5% and less than 20%; • Level 0: the growth inhibition rate is less than 5%;
(§2) The above described growth inhibition rate is fresh weight inhibition rate.
(§3) Post-emergence test experiment: Monocotyledonous and dicotyledonous weed seeds and main crop seeds (i. e. wheat, corn, rice, soybean, cotton, oilseed, millet and sorghum.) were put into a plastic pot loaded with soil. Then covered with 0.5-2 cm soil, the seeds were allowed to grow in good greenhouse environment. The test plants were treated at 2-3 leaf stage 2 weeks after sowing. The test compounds of the invention were dissolved with acetone respectively, then added with tween-80, and using 1.5 liters per hectare of an emulsible concentrate of methyl oleate as a synergist, and diluted by certain amount of water to certain concentration. The solution was sprayed to the plants with a sprayer. Then the plants were cultured for 3 weeks in the greenhouse, and the experiment result of weed controlling effect after 3 weeks was listed in tables 3-4.
(§4) […] Echinochloa crusgalli and Cyperus iria were collected from Ningxia Hui Autonomous Region of China, which had evolved resistance to ALS inhibiting herbicides. • Control compound A:

[2] = test system: Japonica rice; assay: as above; conditions: after 3 weeks
Description: as §1, §2, §3, §4

[3] = test system: ALS resistant Cyperus iria; assay: Post-emergence test experiment (Table 4), weed control; conditions: after 3 weeks
Description: as §1, §2, §3, §4

[4] = test system: ALS resistant Echinochloa crusgalli; assay: as above; conditions: after 3 weeks
Description: as §1, §2, §3, §4

[5] = test system: rice (japonica rice); assay: Transplanted rice safety evaluation; conditions: 1000 g/ha, transplanted 3-leaf stage japonica rice, treated 5 days after transplantation, 21 days after treatment
Description: as §1
(§5) Transplanted rice safety evaluation and weed control effect evaluation in rice field:
In addition, the rice field soil that loaded into the 1/1,000,000 ha pot was leveled to keep water storage at 3-4 cm depth. The 3-leaf stage rice (japonica rice) was transplanted at 3 cm of transplanting depth the next day. The compound of the present invention was treated by the same way after 5 days of transplantation.
(§6) The fertility condition of Monochoria vaginalis 14 days and rice 21 days after the treatment of the compound of the invention with the naked eye.

[6] = test system: Monochoria vaginalis; assay: Weed control effect evaluation in rice field; conditions: paddy water application at 0.5 leaf stage, 14 days after treatment, weeds resistant to pyrazosulfuron-ethyl and penoxsulam
Description: as §1, §5
Rice field soil was loaded into a 1/1,000,000 ha pot. The seeds of Monochoria vaginalis were sowed and gently covered with soil, then left to stand still in greenhouse in the state of 0.5-1 cm of water storage. It was kept at 3-4 cm of water storage thereafter. The weeds were treated by dripping the WP or SC water diluents prepared according to the common preparation method of the compounds of the present invention with pipette homogeneously to achieve specified effective amount when Monochoria vaginalis reached 0. 5 leaf stage.
as §6
Note: The seeds of Monochoria vaginalis were collected from Heilongjing Province of China.

[7] = test system: Abutilon theophrasti; assay: Post-emergence test experiment (Table 3, 1000 g/ha); conditions: post-emergence spray, after 3 weeks, fresh weight inhibition
Procedure, shortened: (§7)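 Activity graded levels 0-5 by fresh-weight inhibition (level 5 above 85%, level 0 below 5%), assessed 3 weeks after treatment. Plants grown in greenhouse pots were sprayed post-emergence at 2-3 leaves using acetone/tween-80 solutions with methyl oleate synergist (1.5 L/ha).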

[8] = test system: Digitaria sanguinalis; assay: as above; conditions: post-emergence spray, after 3 weeks, fresh weight inhibition
Procedure, shortened: as §7

[9] = test system: Galium spurium; assay: as above; conditions: post-emergence spray, after 3 weeks, fresh weight inhibition
Procedure, shortened: as §7

[10] = test system: Leptochloa chinensis; assay: as above; conditions: post-emergence spray, after 3 weeks, fresh weight inhibition
Procedure, shortened: as §7

[11] = test system: Monochoria vaginalis; assay: as above; conditions: post-emergence spray, after 3 weeks, fresh weight inhibition
Procedure, shortened: as §7

[12] = test system: Setaria viridis; assay: as above; conditions: post-emergence spray, after 3 weeks, fresh weight inhibition
Procedure, shortened: as §7

[13] = 600 g/ha active ingredient, plus water 450 kg/ha

| Compound | Indica rice, activity level (growth inhibition rate) [1, 13] | Japonica rice, activity level (growth inhibition rate) [2, 13] | ALS resistant Cyperus iria, activity level (growth inhibition rate) [3, 13] | ALS resistant Echinochloa crusgalli, activity level (growth inhibition rate) [4, 13] | Rice, activity standard level 0-5 (safety) [5] | Monochoria Vaginalis, activity standard level 0-5 ([6]; 1000 g/ha) | Activity level (growth inhibition rate) Abutilon theophrasti [7] | Activity level (growth inhibition rate) Digitaria sanguinalis [8] | Activity level (growth inhibition rate) Galium spurium [9] | Activity level (growth inhibition rate) Leptochloa chinensis [10] | Activity level (growth inhibition rate) Monochoria Vaginalis [11] | Activity level (growth inhibition rate) Setaria viridis [12] | Indica rice, activity level (growth inhibition rate) ([1]; 100 g/ha) | Japonica rice, activity level (growth inhibition rate) ([2]; 100 g/ha) | ALS resistant Cyperus iria, activity level (growth inhibition rate) ([3]; 100 g/ha) | ALS resistant Echinochloa crusgalli, activity level (growth inhibition rate) ([4]; 100 g/ha) | Monochoria Vaginalis, activity standard level 0-5 ([6]; 50 g/ha) |
| --- | --- | --- | --- | --- | --- | --- | --- | --- | --- | --- | --- | --- | --- | --- | --- | --- | --- |
| COC(=O)OC(C)SC(=O)C(C)Oc1nc(F)c(Cl)c(N)c1Cl (centres unmarked) [Compound 98] | 0 (Level 0: the growth inhibition rate is less than 5%) | 0 (Level 0: the growth inhibition rate is less than 5%) | 5 (Level 5: the growth inhibition rate is greater than 85%) | 5 (Level 5: the growth inhibition rate is greater than 85%) | 0 (Level 0: the growth inhibition rate is less than 5%) | 5 (Level 5: the growth inhibition rate is greater than 85%) | 5 (Level 5: the growth inhibition rate is greater than 85%) | 5 (Level 5: the growth inhibition rate is greater than 85%) | 5 (Level 5: the growth inhibition rate is greater than 85%) | 5 (Level 5: the growth inhibition rate is greater than 85%) | 5 (Level 5: the growth inhibition rate is greater than 85%) | 5 (Level 5: the growth inhibition rate is greater than 85%) | – | – | – | – | – |
| CCCCOCCSC(=O)C(C)Oc1nc(F)c(Cl)c(N)c1Cl (centres unmarked) [Compound 87] | 0 (Level 0: the growth inhibition rate is less than 5%) | 0 (Level 0: the growth inhibition rate is less than 5%) | 5 (Level 5: the growth inhibition rate is greater than 85%) | 5 (Level 5: the growth inhibition rate is greater than 85%) | 0 (Level 0: the growth inhibition rate is less than 5%) | 5 (Level 5: the growth inhibition rate is greater than 85%) | 5 (Level 5: the growth inhibition rate is greater than 85%) | 5 (Level 5: the growth inhibition rate is greater than 85%) | 5 (Level 5: the growth inhibition rate is greater than 85%) | 5 (Level 5: the growth inhibition rate is greater than 85%) | 5 (Level 5: the growth inhibition rate is greater than 85%) | 5 (Level 5: the growth inhibition rate is greater than 85%) | – | – | – | – | – |
| CC(C)=NOCCSC(=O)C(C)Oc1nc(F)c(Cl)c(N)c1Cl (centres unmarked) [Compound 97] | 0 (Level 0: the growth inhibition rate is less than 5%) | 0 (Level 0: the growth inhibition rate is less than 5%) | 5 (Level 5: the growth inhibition rate is greater than 85%) | 5 (Level 5: the growth inhibition rate is greater than 85%) | 0 (Level 0: the growth inhibition rate is less than 5%) | 5 (Level 5: the growth inhibition rate is greater than 85%) | 5 (Level 5: the growth inhibition rate is greater than 85%) | 5 (Level 5: the growth inhibition rate is greater than 85%) | 5 (Level 5: the growth inhibition rate is greater than 85%) | 5 (Level 5: the growth inhibition rate is greater than 85%) | 5 (Level 5: the growth inhibition rate is greater than 85%) | 5 (Level 5: the growth inhibition rate is greater than 85%) | – | – | – | – | – |
| COCCCSC(=O)C(C)Oc1nc(F)c(Cl)c(N)c1Cl (centres unmarked) [Compound 88] | 0 (Level 0: the growth inhibition rate is less than 5%) | 0 (Level 0: the growth inhibition rate is less than 5%) | 5 (Level 5: the growth inhibition rate is greater than 85%) | 5 (Level 5: the growth inhibition rate is greater than 85%) | 0 (Level 0: the growth inhibition rate is less than 5%) | 5 (Level 5: the growth inhibition rate is greater than 85%) | 5 (Level 5: the growth inhibition rate is greater than 85%) | 5 (Level 5: the growth inhibition rate is greater than 85%) | 5 (Level 5: the growth inhibition rate is greater than 85%) | 5 (Level 5: the growth inhibition rate is greater than 85%) | 5 (Level 5: the growth inhibition rate is greater than 85%) | 5 (Level 5: the growth inhibition rate is greater than 85%) | – | – | – | – | – |
| COc1cc(OC)nc(Oc2cccc(Oc3nc(OC)cc(OC)n3)c2C(=O)O)n1 [Bispyribac-sodium, reference compound] | – | – | – | – | – | – | – | – | – | – | – | – | 2 (Level 2: the growth inhibition rate is equal to or greater than 20% and less than 40%) | 4 (Level 4: the growth inhibition rate is equal to or greater than 60% and less than 85%) | 1 (Level 1: the growth inhibition rate is equal to or greater than 5% and less than 20%) | 1 (Level 1: the growth inhibition rate is equal to or greater than 5% and less than 20%) | – |
| COc1cnc(OC)n2nc(NS(=O)(=O)c3c(OCC(F)F)cccc3C(F)(F)F)nc12 [Penoxsulam, reference compound] | – | – | – | – | – | – | – | – | – | – | – | – | – | – | – | – | 1 (Level 1: the growth inhibition rate is equal to or greater than 5% and less than 20%) |
| CC(Oc1nc(F)c(Cl)c(N)c1Cl)C(=O)SC[N+](=O)[O-] (centres unmarked) [Compound 156] | – | – | – | – | – | – | 5 (Level 5: the growth inhibition rate is greater than 85%) | 5 (Level 5: the growth inhibition rate is greater than 85%) | 5 (Level 5: the growth inhibition rate is greater than 85%) | 5 (Level 5: the growth inhibition rate is greater than 85%) | 5 (Level 5: the growth inhibition rate is greater than 85%) | 5 (Level 5: the growth inhibition rate is greater than 85%) | – | – | – | – | – |
